Reference: patent US20130039852A1, “METHODS OF TARGETING CELLS FOR DIAGNOSIS AND THERAPY” (NORTHEASTERN UNIVERSITY, priority 2008, published 2013)
≈ marks a conversion by molar mass, not a printed value.

Experiments:
anti-Bombesin antibody = experiment: ELISA for bispecificity using anti-Bombesin capture antibody and DTPA-HRP; format: binding; conditions: 1 μg/ml, captured by anti-Bombesin antibody
Procedure: Intact 6C31H3 anti-DTPA antibody was modified with 100× molar excess iminothiolane. Bombesin was modified with 24× molar excess N-hydroxy-succinimide ester of bromoacetic acid (as described in Varvarigou et al., Can. Biother. Radiopharm. 19:219-229 (2004); and Bernatowicz et al., Anal. Biochem. 155:95-102 (1986)). […] The antibody activity and Bombesin concentrations were assessed by ELISA using either DTPA-BSA or anti-Bombesin antibody and compared to standard curves. Specifically, the Bombesin concentration of serial dilutions of Bom-BiSpCx starting at 1 μg/ml was determined by ELISA using Bombesin (1 μg/ml) and 6C31H3 antibody (1 μg/ml) as controls. Bombesin of the Bom-BiSpCx (1 μg/ml) was captured by an anti-Bombesin antibody, resulting in a positive reaction with DTPA-HRP (which is specific for the […] antibody of the Bom-BiSpCx).

[1] = test system: H9C2 embryonic rat cardiocytes; experiment: IC50 in H9C2 embryonic cardiocytes, Trypan Blue exclusion; format: cell-based; conditions: 24 hr
Procedure: H9C2 embryonic rat cardiocytes cultured in 10% Fetal Clone DMEM (F-DMEM) at 37° C. in 25 ml sterile culture flasks until 90% confluent in triplicate were dissociated by Trypsin digestion. The cells were washed in F-DMEM. Aliquots of 40,000 H9C2 cells in 1 ml F-DMEM were delivered to each well of a 6 well culture plate. After incubation for 24 hr, the culture medium was removed and fresh medium containing 2.5 μg/ml, 5 μg/ml, 10 μg/ml, 15 μg/ml, and 30 μg/ml of Dox-DPG or free Dox were added and incubated at 37° C. for 24 hr. Cell death was assessed by Trypan Blue exclusion test.

[2] = test system: BT-20 human mammary tumor cells; experiment: In vitro assay for tumorotoxicity in BT-20 human mammary tumor cells; format: cell-based; conditions: BT-20 cells, 10 μg/ml, 3 hrs; compared with Dox-DPG and Dox-DPG-BiSpAb
Procedure: BT-20 human mammary tumor cells were grown in 10% Fetal Clone DEME. When the cells reached about 80% confluence, the cells were harvested by trypsin digestion and replated in […] culture plates at 400,000 cells per well. After 24 hrs, the culture media was removed and in one set of wells was replaced with media containing 10 μg/ml of 2C5-6C31H3 BiSpAb (prepared as described in Example 1). In two other sets, the media was replaced with media lacking 2C5-6C31H3 BiSpAb. Each set was prepared in triplicate. After 24 hrs of incubation, the medium was removed and washed 3× with medium lacking antibody. Medium containing 10 μg/ml of free Dox was then added to a medium-only set of wells, and media containing 10 μg/ml of Dox-DPG was added to one set with and one set without 2C5-6C31H3 BiSpAb. The cultures were incubated for either 3 hrs, 12 hrs, or 24 hrs, at which times the cells in the media were collected and viability was determined by counting cells with Tryptan Blue exclusion criteria in a hemocytometer.

PC-3 cancer cells = experiment: In vitro therapeutic efficacy in PC-3 cell cultures; format: cell-based, human; conditions: 10 μg Bom-BiSpCx 24 hr then 10 μg/ml Dox-DPG, or 10 μg/ml free Dox; Trypan blue
Procedure: PC-3 cancer cells were grown in 10% fetal clone-DMEM until they reached about 80% confluence. The cells were then harvested by trypsin digestion and re-plated in 6 well culture plates at 40,000 cells per well. After attaining 70% confluency, the medium was replaced with or without 10 μg of Bom-BiSpCx (prepared as described in Example 3) in triplicates to quadruplicates. After 24 hr of incubation at 37° C. in 5% CO2, the media was changed to media containing 10 μg/ml of free Dox or Dox-DPG (prepared as described in Example 2). The cells were further incubated at 37° C. for 0-3 hr, 3-12 hr, or 12-24 hr, at which time the cells in each well were collected and the number of live and dead cells determined by Trypan blue exclusion test in a Hemocytometer. Negative control cells were treated with monospecific 2C5 antibody, […] antibody, Bombesin, or culture media alone. Positive control cells were treated with 10 μg/ml of free Dox. Each assay was repeated at least 3 times in triplicate or quadruplicate.

| SMILES | Reaction with DTPA-HRP, O.D. 490 nm (anti-Bombesin antibody) | IC50 (cardiotoxicity) [1] | Tumor cell killing, early stage of incubation [2] | Death of PC-3 cancer cells (PC-3 cancer cells) |
| --- | --- | --- | --- | --- |
| O=C(O)CN(CCN(CC(=O)O)CC(=O)O)CCN(CC(=O)O)CC(=O)O [DTPA, diethylene triaminepentaacetic acid] | 0.0007±0.0025 |  |  |  |
| COc1cccc2c1C(=O)c1c(O)c3c(c(O)c1C2=O)C[C@@](O)(C(=O)CO)C[C@@H]3O[C@H]1C[C@H](N)[C@H](O)[C@H](C)O1 [doxorubicin] |  | 1.02 µg/mL (≈ 1.88 µM) | more effective in killing tumor cells | 68.6% |
